Measurements reported in PubChem BioAssay AID330 (DTP/NCI, 2004).
Where “and” joins values, the source holds several entries; their conditions need not be identical. Equal entries are not always repeated. Toxic doses and inconclusive results are not listed. The calls were made as follows: active = survival T/C of 150% or more; inactive = T/C below 125% in these data.

System: P388 leukemia ip, CD2F1 mice, survival T/C
Experiment: NCI In Vivo Anticancer Drug Screen. Data for tumor model P388 Leukemia (intraperitoneal) in CD2F1 (CDF1) mice
Conditions: endpoint: median survival time, higher = longer survival
Outline: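 Mice carrying the transplanted tumor received test compound or vehicle. Survival was recorded in each group, and the value is the treated-group measurement divided by that of the vehicle-treated control group.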

[1] = dose: 6.25 mg/kg/injection, schedule: Q04DX003 (ip), vehicle: saline with Tween-80
[2] = dose: 12.5 mg/kg/injection, schedule: Q04DX003 (ip), vehicle: saline with Tween-80
[3] = dose: 25.0 mg/kg/injection, schedule: Q04DX003 (ip), vehicle: saline with Tween-80
[4] = dose: 50.0 mg/kg/injection, schedule: Q01DX005 (ip), vehicle: Klucel (hydroxypropylcellulose) (HPC)
[5] = dose: 100.0 mg/kg/injection, schedule: Q01DX005 (ip), vehicle: Klucel (hydroxypropylcellulose) (HPC)
[6] = dose: 200.0 mg/kg/injection, schedule: Q01DX005 (ip), vehicle: Klucel (hydroxypropylcellulose) (HPC)
[7] = dose: 3.12 mg/kg/injection, schedule: Q01DX005 (ip), vehicle: saline
[8] = dose: 6.25 mg/kg/injection, schedule: Q01DX005 (ip), vehicle: saline
[9] = dose: 50.0 mg/kg/injection, schedule: Q01DX009 (ip), vehicle: Klucel (hydroxypropylcellulose) (HPC)
[10] = dose: 100.0 mg/kg/injection, schedule: Q01DX009 (ip), vehicle: Klucel (hydroxypropylcellulose) (HPC)
[11] = dose: 200.0 mg/kg/injection, schedule: Q01DX009 (ip), vehicle: Klucel (hydroxypropylcellulose) (HPC)
[12] = dose: 100.0 mg/kg/injection, schedule: Q04DX003 (ip), vehicle: saline with Tween-80
[13] = dose: 50.0 mg/kg/injection, schedule: Q01DX005 (ip), vehicle: saline with Tween-80
[14] = dose: 60.0 mg/kg/injection, schedule: Q01DX005 (ip), vehicle: saline
[15] = dose: 120.0 mg/kg/injection, schedule: Q01DX005 (ip), vehicle: saline
[16] = dose: 240.0 mg/kg/injection, schedule: Q01DX005 (ip), vehicle: saline
[17] = dose: 200.0 mg/kg/injection, schedule: Q04DX003 (ip), vehicle: saline with Tween-80
[18] = dose: 400.0 mg/kg/injection, schedule: Q04DX003 (ip), vehicle: saline with Tween-80
[19] = dose: 60.0 mg/kg/injection, schedule: Q01DX005 (ip), vehicle: saline with Tween-80

Measured: T/C

CC(=N/NC(=S)NCCN1CCCC1)/C(C)=N\NC(=S)NCCN1CCCC1
inactive: [1] 117 % of control | [2] 98 % of control | [3] 100 % of control

CCC1(O)OC(=O)C(C)=C1C (stereo not given)
inactive: dose: 12.5 mg/kg/injection, schedule: Q04DX003 (ip), vehicle: saline 98 % of control | dose: 25.0 mg/kg/injection, schedule: Q04DX003 (ip), vehicle: saline 95 % of control | dose: 50.0 mg/kg/injection, schedule: Q04DX003 (ip), vehicle: saline 99 % of control

CCC(Nc1nncs1)Nc1nncs1
inactive: [4] 100 % of control | [5] 99 % of control | [6] 98 % of control

CC(=O)Oc1ccc(OC(C)=O)c2c(OC(C)=O)c(C(CC=C(C)C)OC(C)=O)cc(OC(C)=O)c12 (stereo not given)
inactive: dose: 12.5 mg/kg/injection, schedule: Q04DX002 (ip), vehicle: saline with Tween-80 108 % of control | dose: 25.0 mg/kg/injection, schedule: Q04DX002 (ip), vehicle: saline with Tween-80 117 % of control

COc1cc([C@@H]2c3cc4c(cc3[C@H](OC(=O)CCCC(=O)O)[C@H]3COC(=O)[C@H]23)OCO4)cc(OC)c1OC
inactive: [7] 100 % of control | [8] 104 % of control | dose: 12.5 mg/kg/injection, schedule: Q01DX005 (ip), vehicle: saline 110 % of control and 122 % of control

Clc1ccc(N2C=Nc3ccc(Cl)cc3C2)cc1
inactive: [9] 100 % of control | [10] 97 % of control | [11] 98 % of control

CC(=O)N1c2ccccc2Sc2cc(C(O)(C(F)(F)F)C(F)(F)F)ccc21
inactive: [3] 95 % of control | dose: 50.0 mg/kg/injection, schedule: Q04DX003 (ip), vehicle: saline with Tween-80 100 % of control | [12] 100 % of control

CCC12OC(COc3ccccc3)CN1CCS2 (stereo not given)
inactive: [13] 98 % of control | dose: 100.0 mg/kg/injection, schedule: Q01DX005 (ip), vehicle: saline with Tween-80 107 % of control | dose: 200.0 mg/kg/injection, schedule: Q01DX005 (ip), vehicle: saline with Tween-80 99 % of control

Brc1nc(Br)c(Br)[nH]1
inactive: dose: 50.0 mg/kg/injection, schedule: Q01DX009 (ip), vehicle: saline sonified 91 % of control

CC1=NNC(=O)CC1C(O)c1ccccc1 (stereo not given)
inactive: [14] 114 % of control | [15] 101 % of control | [16] 107 % of control

CN(C)CCCSc1n[nH]c(=O)[nH]c1=O
inactive: dose: 25.0 mg/kg/injection, schedule: Q01DX005 (ip), vehicle: distilled water + alcohol 111 % of control | dose: 50.0 mg/kg/injection, schedule: Q01DX005 (ip), vehicle: distilled water + alcohol 104 % of control | dose: 100.0 mg/kg/injection, schedule: Q01DX005 (ip), vehicle: distilled water + alcohol 95 % of control | dose: 200.0 mg/kg/injection, schedule: Q01DX005 (ip), vehicle: distilled water + alcohol 92 % of control

O=C1NC(=O)C2(CC3CCCCC3CC2c2ccccc2)N1 (stereo not given)
inactive: [12] 89 % of control | [17] 91 % of control | [18] 100 % of control

O=C(C1CC2CCN1CC2)N1CCN(C(=O)C2CC3CCN2CC3)CC1 (stereo not given)
inactive: dose: 1.56 mg/kg/injection, schedule: Q01DX005 (ip), vehicle: saline 98 % of control | [7] 102 % of control and 96 % of control | [8] 97 % of control | [19] 101 % of control | dose: 120.0 mg/kg/injection, schedule: Q01DX005 (ip), vehicle: saline with Tween-80 101 % of control

O=C(O)C(c1ccccc1)C1CCCCC1C1CCCCC1 (stereo not given)
inactive: dose: 12.5 mg/kg/injection, schedule: Q01DX005 (ip), vehicle: saline with Tween-80 98 % of control | dose: 25.0 mg/kg/injection, schedule: Q01DX005 (ip), vehicle: saline with Tween-80 95 % of control | [13] 100 % of control and 93 % of control

O=S(=O)(Oc1cccc(C(F)(F)F)c1)c1cccc(C(F)(F)F)c1
inactive: dose: 6.25 mg/kg/injection, schedule: Q01DX009 (ip), vehicle: saline with Tween-80 100 % of control | [1] 100 % of control | dose: 12.5 mg/kg/injection, schedule: Q01DX009 (ip), vehicle: saline with Tween-80 91 % of control | [2] 100 % of control | dose: 25.0 mg/kg/injection, schedule: Q01DX009 (ip), vehicle: saline with Tween-80 91 % of control | [3] 100 % of control

NCCCn1[nH]c(=O)c2ccncc2c1=O
inactive: dose: 100.0 mg/kg/injection, schedule: Q04DX002 (ip), vehicle: saline 97 % of control | dose: 200.0 mg/kg/injection, schedule: Q04DX002 (ip), vehicle: saline 97 % of control | dose: 400.0 mg/kg/injection, schedule: Q04DX002 (ip), vehicle: saline 95 % of control

c1ccc(-c2c3ccccc3c[n+]3ccccc23)cc1
inactive: dose: 3.13 mg/kg/injection, schedule: Q01DX009 (ip), vehicle: Klucel (hydroxypropylcellulose) (HPC) 106 % of control | dose: 6.25 mg/kg/injection, schedule: Q01DX009 (ip), vehicle: Klucel (hydroxypropylcellulose) (HPC) 92 % of control

C=C(OC(=O)CN(C)C)c1ccccc1
inactive: [12] 98 % of control | [17] 100 % of control | [18] 94 % of control

O=C(NCCCl)Nc1[nH]c(=O)ncc1I
inactive: dose: 1.88 mg/kg/injection, schedule: Q01DX005 (ip), vehicle: saline with Tween-80 101 % of control | dose: 3.75 mg/kg/injection, schedule: Q01DX005 (ip), vehicle: saline with Tween-80 101 % of control | dose: 7.5 mg/kg/injection, schedule: Q01DX005 (ip), vehicle: saline with Tween-80 100 % of control | [19] 95 % of control

CCN(CC)Cc1cc(N=Nc2ccc([N+](=O)[O-])c(OC)c2)c2ccccc2c1O
inactive: [9] 99 % of control | [10] 95 % of control | [11] 97 % of control

CC(Cc1ccc(O)c(O)c1)C(C)Cc1ccc(O)c(O)c1 (stereo not given)
inactive: dose: 100.0 mg/kg/injection, schedule: Q01DX009 (ip), vehicle: saline 98 % of control and 106 % of control | dose: 200.0 mg/kg/injection, schedule: Q01DX009 (ip), vehicle: saline 101 % of control and 102 % of control | dose: 400.0 mg/kg/injection, schedule: Q01DX009 (ip), vehicle: saline 105 % of control and 94 % of control | dose: 600.0 mg/kg/injection, schedule: Q01DX009 (ip), vehicle: saline 98 % of control and 90 % of control

C=CCCCN1C(=O)CCC1=O
inactive: dose: 50.0 mg/kg/injection, schedule: Q01DX005 (ip), vehicle: saline 105 % of control | dose: 100.0 mg/kg/injection, schedule: Q01DX005 (ip), vehicle: saline 97 % of control | dose: 200.0 mg/kg/injection, schedule: Q01DX005 (ip), vehicle: saline 100 % of control

OCc1cnccc1Br
inactive: [14] 99 % of control | [15] 100 % of control | [16] 99 % of control

CC(C)=O
inactive: dose: 2.0 % in 0.5 ml injection vol, schedule: Q01DX009 (ip), vehicle: water 97 % of control | dose: 4.0 % in 0.5 ml injection vol, schedule: Q01DX009 (ip), vehicle: water 100 % of control and 101 % of control | dose: 8.0 % in 0.5 ml injection vol, schedule: Q01DX009 (ip), vehicle: water 102 % of control and 106 % of control | dose: 16.0 % in 0.5 ml injection vol, schedule: Q01DX009 (ip), vehicle: water 105 % of control

Cc1nc2c(Cl)cccc2c2ccccc12
inactive: [4] 88 % of control | [5] 92 % of control | [6] 88 % of control

CC(=O)Nc1ccc(CN2CC(C)N(N)C(C)C2)cc1 (stereo not given)
inactive: dose: 25.0 mg/kg/injection, schedule: Q04DX003 (ip), vehicle: Klucel (hydroxypropylcellulose) (HPC) 101 % of control | dose: 50.0 mg/kg/injection, schedule: Q04DX003 (ip), vehicle: Klucel (hydroxypropylcellulose) (HPC) 98 % of control | dose: 100.0 mg/kg/injection, schedule: Q04DX003 (ip), vehicle: Klucel (hydroxypropylcellulose) (HPC) 95 % of control | dose: 200.0 mg/kg/injection, schedule: Q04DX003 (ip), vehicle: Klucel (hydroxypropylcellulose) (HPC) 100 % of control | dose: 400.0 mg/kg/injection, schedule: Q04DX003 (ip), vehicle: Klucel (hydroxypropylcellulose) (HPC) 104 % of control
